Assay results published in patent publication US6013632A, “Compounds and their combinations for the treatment of influenza infection” (Emory University, priority 1998, dated 2000).

Experiments:
[1] = test system: Influenza A/WSN strain; test: Virus production by HA titer in influenza-infected MDCK cells; assay type: cell-based; conditions: for Decreased virus production (HA titer): 48 hours post infection; for inhibition at 10000 µM / inhibition at 30000 µM: Influenza A virus, WSN
[2] = test system: MDCK cells; conditions: 10 mM
Description: GSH was measured in MDCK cells after infection with influenza virus either without or with 10 mM GSH.

[3] = test system: MDCK cells
[4] = test system: Influenza A/WSN strain; conditions: 30 mM, normal human SAEC, cultured up to 72 h
Description: SAEC were cultured until 70% confluent. Cells were washed and inoculated with influenza A/WSN strain for 2 h. After washing to remove non-adherent virus, cells were cultured for up to 72 h in medium without or with GSH and assayed for virus production by HA titer.

[5] = test system: Influenza A/WSN strain; conditions: normal human SAEC, plaque forming assay
[6] = test system: influenza virus
[7] = test system: MDCK cells; remark: listed apart in the source
[8] = test system: viral proteins; conditions: 35S-methionine labeling after virus infection, without or with added compound
Description: To determine whether GSH altered viral protein synthesis and processing, cells were incubated with ^35 S-methionine to label newly synthesized proteins following virus infection either without or with added GSH. Cells were washed and lysed in SDS-PAGE buffer.

[9] = test system: MDCK cells; test: Toxicity to MDCK cells at the tested concentrations; conditions: 10 mM and 30 mM
[10] = test system: Influenza A/WSN strain; test: Plaque-forming units in supernatant of infected MDCK cells; assay type: cell-based; conditions: 10 mM, 48 h
Description: MDCK cells were cultured in 100 mm dishes until 80% confluent. Cells were washed with phosphate-buffered saline and inoculated with Influenza A/WSN strain at a multiplicity of infection of 0.05-0.1 plaque-forming units/cell in serum-free DMEM medium for 2 hours. […] At 48 hours post infection, 100 μl supernatant from each dish was assayed for virus HA titer or plaque-forming units.

## N[C@@H](CCC(=O)N[C@@H](CS)C(=O)NCC(=O)O)C(=O)O [GSH, gamma-L-Glu-L-Cys-Gly]
[1]; 1 mM
  Decreased virus production (HA titer): 30%
[1]; 5 mM
  Decreased virus production (HA titer): 60%
[1]; 10 mM, 48 h post infection
  Inhibition of virus production (HA titer): 56%
[1]; 30 mM, 48 h post infection
  Inhibition of virus production (HA titer): 90%
[2]; MDCK cells, absence of virus
  Effect on cellular GSH: did not increase cellular GSH
[2]; virus-infected MDCK cells
  Effect on loss of cellular GSH: did not prevent the loss of GSH
[3]
  Toxicity to the cells: not toxic
[4]
  Decrease of virus production (HA titer): greater than 90%
[5]
  Confirmation of decreased virus production by number of infectious particles: confirmed
[6]; 10-30 mM co-incubated with virus and MDCK cells for 2 h, washed, then 48 h
  Decrease in virus production: no decrease
[6]; added after incubation of cells with virus, 48 h, MDCK cells
  Decrease of HA titer: 85%
[6]; virus incubated 1 h with up to 30 mM before incubation with MDCK cells
  Effect on virus production after 48 h: no effect
[7]; no virus
  Apoptosis caused by the compound alone: did not cause apoptosis
[7]; up to 30 mM, 48 h
  Effect on apoptosis of virus infected cells: unaffected
[8]
  Patterns or amounts of labeled viral proteins: no detectable differences

## CC(=O)N[C@@H](CS)C(=O)O [NAC, N-Acetyl-L-cysteine, reference compound]
[1]; 10 mM, 24 h
  inhibition at 10000 µM: 50%
[1]; 10 mM, 48 h post infection
  inhibition at 10000 µM: 62%
[1]; 30 mM, 24 h
  inhibition at 30000 µM: 75%
[1]; 30 mM, 48 h post infection
  inhibition at 30000 µM: 95%
[9]
  Toxicity to cells: not toxic

## Ascorbate-2-phosphate
[1]; 10 mM, 48 h post infection
  Inhibition of virus production (HA titer): 37%
[1]; 10 or 30 mM
  Protection against virus titer and infectious particle production: provided protection
[10]
  Inhibition of plaque-forming units: 50%
